From the METLIN SMRT retention time set (Domingo-Almenara et al. 2019)

Test: gradient 5% acetonitrile 3 min, to 50% in 2 min, to 85% in 15 min, held 3 min, 100 µL/min
Settings: column: Zorbax Extend-C18 2.1 x 50 mm; eluents: water / acetonitrile, 0.1% formic acid
Method in brief: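 The system's dead and dwell volumes were 40 μL and 900 μL, with a Zorbax Extend-C18 column (2.1 × 50 mm, 1.8 μm) run at 100 μL/min in water and acetonitrile containing 0.1% formic acid each. Pure standards were analyzed in mixtures of ~100 molecules by HPLC–quadrupole time-of-flight mass spectrometry in positive and negative ionization mode. Retention time was assigned from computationally picked, manually inspected adduct peaks.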

**Q.** Which RP-LC retention time does the source give for `O=C(NC1CC1)c1ccc(OCC2CCN(C(=O)c3ccc(F)cc3F)CC2)cc1` here?
**A.** Its RP-LC retention time is 804 s.

**Q.** For `CN1C(=O)c2cccn2CC1C(=O)NC1CCCC1` (stereo not given), which RP-LC retention time is on record?
**A.** Its RP-LC retention time is 634 s.

**Q.** For `O=C(Nc1cccc(F)c1)C1CCN(C(=O)c2ncn3c2COC(c2ccc(F)cc2)C3)CC1` (stereo not given), which RP-LC retention time is on record?
**A.** The RP-LC retention time was 832 s.

**Q.** With `CCOc1ccc(C(=O)NCc2nnc3n2CCCC3)cc1OCC` as the molecule, how does the RP-LC retention time read?
**A.** Its RP-LC retention time is 674 s.

**Q.** With `CCc1ccccc1NS(=O)(=O)c1c(C)sc(C)c1-c1cc(C(F)(F)F)on1` as the molecule, how does the RP-LC retention time read?
**A.** Its RP-LC retention time is 1240 s.

**Q.** For `CCCc1ccc(S(=O)(=O)N2CCC(n3c(-c4ccoc4)nc4cccnc43)C2)cc1` (stereo not given), which RP-LC retention time is on record?
**A.** Its RP-LC retention time is 1020 s.

**Q.** For `COc1cc(OC)c(OC)cc1CC1C(=O)Nc2ccccc21` (stereo not given), which RP-LC retention time is on record?
**A.** The RP-LC retention time was 770 s.

**Q.** For `CN(CCc1noc(COc2cccc(C(F)(F)F)c2)n1)C(=O)c1ccco1`, which RP-LC retention time is on record?
**A.** Its RP-LC retention time is 919 s.

**Q.** With `Fc1cccc(-c2nc(-c3ccc4nncn4c3)no2)c1` as the molecule, how does the RP-LC retention time read?
**A.** Its RP-LC retention time is 813 s.

**Q.** Which RP-LC retention time does the source give for `O=C(COc1ccc(-c2nnc3n2CCCC3)cc1)N1CCc2ccccc21` here?
**A.** Its RP-LC retention time is 790 s.

**Q.** For `CCc1nc(-c2csc(S(=O)(=O)N3CCCC(C(=O)Nc4ccc(F)cc4C)C3)c2)no1` (stereo not given), which RP-LC retention time is on record?
**A.** The RP-LC retention time was 1020 s.

**Q.** For `Cc1cccc(-c2csc3c(=O)n(CC(=O)OC(C)(C)C)cnc23)c1`, which RP-LC retention time is on record?
**A.** Its RP-LC retention time is 1070 s.

**Q.** Which RP-LC retention time does the source give for `CCc1cc(C(=O)Nc2ccc(C)cc2C)nc2ccnn12` here?
**A.** The RP-LC retention time was 1090 s.

**Q.** For `O=S(=O)(c1ccc(F)c(Cl)c1)N1CCc2nc(-c3ccccc3)ncc2C1`, which RP-LC retention time is on record?
**A.** Its RP-LC retention time is 1130 s.

**Q.** With `CNC(=O)c1[nH]c2ccc(F)cc2c1N1CCCC1=O` as the molecule, how does the RP-LC retention time read?
**A.** Its RP-LC retention time is 658 s.

**Q.** For `CCN1C(=O)COc2ccc(-c3csc(NC(=O)CCC4CCCCC4)n3)cc21`, which RP-LC retention time is on record?
**A.** Its RP-LC retention time is 934 s.

**Q.** Which RP-LC retention time does the source give for `NC(=O)C1CCN(C2CC(=O)N(c3cccc(F)c3)C2=O)CC1` (stereo not given) here?
**A.** The RP-LC retention time was 582 s.

**Q.** With `O=C(NCc1csc(C2CCN(C(=O)c3ccc(Cl)cc3)CC2)n1)C1CC1` as the molecule, how does the RP-LC retention time read?
**A.** Its RP-LC retention time is 725 s.

**Q.** With `CCOc1ccc(-c2nc(C3CC(=O)N(c4ccc(Cl)cc4)C3)no2)cc1OCC` (stereo not given) as the molecule, how does the RP-LC retention time read?
**A.** Its RP-LC retention time is 1150 s.

**Q.** With `CC1CCN(c2nc(=O)n(CC(=O)Nc3ccc(C(C)C)cc3)c3ccccc23)CC1` as the molecule, how does the RP-LC retention time read?
**A.** Its RP-LC retention time is 981 s.

**Q.** With `CSc1nnc(-c2nn(C)c3c2CN(C(=O)c2c(F)cccc2F)CC3)n1C` as the molecule, how does the RP-LC retention time read?
**A.** The RP-LC retention time was 695 s.

**Q.** Which RP-LC retention time does the source give for `Cn1ncc2c(N3CCSCC3)nc(C(=O)NCCc3cccs3)nc21` here?
**A.** Its RP-LC retention time is 833 s.

**Q.** For `CCOC(=O)C1CCN(c2cc3c(cc2NC(=O)NCC(C)C)n(C)c(=O)n3C)CC1`, which RP-LC retention time is on record?
**A.** Its RP-LC retention time is 685 s.

**Q.** Which RP-LC retention time does the source give for `CCN1CCN(C(=O)Cc2ccc(Nc3ncc(F)c(Nc4ccc(C(=O)Nc5ccccc5Cl)cc4)n3)cc2)CC1` here?
**A.** The RP-LC retention time was 684 s.

**Q.** Which RP-LC retention time does the source give for `CCn1c(=O)c(N2CCCC(C(=O)NCCc3c[nH]c4ccc(Cl)cc34)C2)nc2ccccc21` (stereo not given) here?
**A.** Its RP-LC retention time is 1010 s.

**Q.** For `CC(C)c1nc(C2CN(C(=O)Nc3cc(F)cc(F)c3)C2)n(C)n1`, which RP-LC retention time is on record?
**A.** Its RP-LC retention time is 717 s.

**Q.** Which RP-LC retention time does the source give for `O=C(NCCn1c(=O)n(Cc2ccc(F)cc2)c2cccnc21)c1ccsc1` here?
**A.** Its RP-LC retention time is 762 s.

**Q.** With `CCCOc1ccc(-c2noc(Cc3nc(-c4ccccc4)cs3)n2)cc1` as the molecule, how does the RP-LC retention time read?
**A.** The RP-LC retention time was 1340 s.

**Q.** With `COc1ccccc1-c1nnc2sc(-c3cc(CC(C)C)[nH]n3)nn12` as the molecule, how does the RP-LC retention time read?
**A.** Its RP-LC retention time is 891 s.

**Q.** For `CC(C)(C)C(=O)OCOP(=O)(COCCn1cnc2c(N)ncnc21)OCOC(=O)C(C)(C)C`, which RP-LC retention time is on record?
**A.** Its RP-LC retention time is 725 s.

**Q.** Which RP-LC retention time does the source give for `O=C(Cc1c(F)cccc1Cl)N1CCN(Cc2ccsc2)CC1` here?
**A.** Its RP-LC retention time is 570 s.

**Q.** With `COc1ccccc1-c1noc(CN2C(=O)COc3cc(Cl)ccc32)n1` as the molecule, how does the RP-LC retention time read?
**A.** The RP-LC retention time was 974 s.

**Q.** With `CCCn1cnc2ccc(-c3noc(-c4cccc(OC)c4)n3)cc21` as the molecule, how does the RP-LC retention time read?
**A.** Its RP-LC retention time is 728 s.

**Q.** For `CCOC(=O)c1cccc(NC(=O)C2CCCN(c3nc4ccccc4nc3C(F)(F)F)C2)c1` (stereo not given), which RP-LC retention time is on record?
**A.** Its RP-LC retention time is 1280 s.

**Q.** With `CCn1ccc(NC(=O)NC2CCCCC2)n1` as the molecule, how does the RP-LC retention time read?
**A.** Its RP-LC retention time is 779 s.

**Q.** Which RP-LC retention time does the source give for `COc1cccc2cc(C(=O)Nc3nc(-c4ccccc4)cs3)c(=O)oc12` here?
**A.** The RP-LC retention time was 1180 s.

**Q.** With `CCC(=O)Nc1ccc(-n2cnc(C(=O)N3CCN(c4ccccc4OC)CC3)c2)nc1` as the molecule, how does the RP-LC retention time read?
**A.** Its RP-LC retention time is 667 s.

**Q.** Which RP-LC retention time does the source give for `CCn1ccc2sc(C)c(C(=O)NCc3ccc4c(c3)OCO4)c2c1=O` here?
**A.** The RP-LC retention time was 769 s.

**Q.** Which RP-LC retention time does the source give for `O=c1c2sccc2n(Cc2nc(-c3ccc(OC(F)(F)F)cc3)no2)c(=O)n1-c1ccccc1` here?
**A.** The RP-LC retention time was 1080 s.

**Q.** With `CCc1ccc(Oc2cc(N3CCC(C(=O)NCCc4ccccn4)CC3)ncn2)cc1` as the molecule, how does the RP-LC retention time read?
**A.** The RP-LC retention time was 656 s.

**Q.** With `COc1ccc2c(c1)C=C(C(=O)N(C)c1ccccc1)C=CO2` as the molecule, how does the RP-LC retention time read?
**A.** Its RP-LC retention time is 1030 s.

**Q.** For `COc1cc(NC(=O)Cn2nc3c(N4CCSCC4)nccn3c2=O)cc(OC)c1`, which RP-LC retention time is on record?
**A.** The RP-LC retention time was 795 s.

**Q.** With `O=C(CCN(CC1CCCO1)C(=O)c1cccc(Br)c1)N1CCNCC1` (stereo not given) as the molecule, how does the RP-LC retention time read?
**A.** Its RP-LC retention time is 610 s.

**Q.** For `CNS(=O)(=O)c1cccnc1Nc1ccccc1`, which RP-LC retention time is on record?
**A.** Its RP-LC retention time is 865 s.

**Q.** Which RP-LC retention time does the source give for `COc1ccccc1N1CCN(c2ncc(S(=O)(=O)c3ccc(C)c(C)c3)c(N)n2)CC1` here?
**A.** Its RP-LC retention time is 1020 s.
